Results: US6610883B1, “Compounds having selective activity for retinoid X receptors, and means for modulation of processes mediated by retinoid X receptors” (Ligand Pharmaceuticals, Inc., priority 1992, dated 2003)
Where two headings read alike, the source gives them in different places.

Tests used:
Assay type in all cases: cell-based
RXRα = biological target: T1, RXRα (Homo sapiens, UniProt P19793); assay: Co-transfection (cis-trans) assay in CV-1 cells, RXRα; design: Emax: dose or concentration left out as unconfirmed; conditions: for Emax at 10 µM: CV-1, maximal response relative to all-trans-retinoic acid at 10^−5 M, read-out: Efficacy
T1 construct: The first plasmid contains a retinoid receptor cDNA and directs constitutive expression of the encoded receptor; expressed in transfected cells; host or cells: CV-1 (monkey kidney)
T1 sequence (P19793 1-462): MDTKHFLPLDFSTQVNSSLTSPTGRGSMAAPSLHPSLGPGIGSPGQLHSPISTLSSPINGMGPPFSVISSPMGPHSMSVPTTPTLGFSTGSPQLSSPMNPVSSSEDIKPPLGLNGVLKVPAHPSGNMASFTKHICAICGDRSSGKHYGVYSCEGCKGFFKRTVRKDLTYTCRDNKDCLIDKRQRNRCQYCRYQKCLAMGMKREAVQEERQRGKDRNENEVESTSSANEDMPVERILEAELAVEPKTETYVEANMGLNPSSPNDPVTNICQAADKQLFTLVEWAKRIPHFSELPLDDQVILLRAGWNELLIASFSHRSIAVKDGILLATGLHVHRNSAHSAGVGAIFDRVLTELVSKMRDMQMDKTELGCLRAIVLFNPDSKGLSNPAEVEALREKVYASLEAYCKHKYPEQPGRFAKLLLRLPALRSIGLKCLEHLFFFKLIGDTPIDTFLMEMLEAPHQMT
From the text: (§1) The co-transfection assay provides a mechanism to evaluate the ability of a compound to modulate the transcription response initiated by an intracellular receptor. […] Berger, et al., J. Steroid Biochem Molec.
(§2) Briefly, the co-transfection assay involves the introduction of two plasmids by transient transfection into a retinoid receptor-negative mammalian cell background. The first plasmid contains a retinoid receptor cDNA and directs constitutive expression of the encoded receptor. The second plasmid contains a cDNA that encodes for a readily quantifiable protein, e.g., firefly luciferase or chloramphenicol acetyl transferase (CAT), under control of a promoter containing a retinoid acid response element, which confers retinoid dependence on the transcription of the reporter. In this co-transfection assay, all retinoid receptors respond to all-trans-retinoic acid in a similar fashion. This assay can be used to accurately measure efficacy and potency of retinoic acid and synthetic retinoids as ligands that interact with the individual retinoid receptor subtypes.
(§3) Accordingly, synthetic retinoid compounds of the current invention were evaluated for their interaction with retinoid receptor subtypes using the co-transfection assay in which CV-1 cells were co-transfected with one of the retinoid receptor subtypes, a reporter construct, and an internal control to allow normalization of the response for transfection efficiency. The following example is illustrative.
(§4) Retinoids: All-tans-retinoic acid (RA) and 13-cis-retinoic acid (13-cis-RA) were obtained from Sigma. […] Retinoids were dissolved in dimethylsulfoxide for use in the transcriptional activation assays.
(§5) Co-transfection Assay In CV-1 Cells: A monkey kidney cell line, CV-1, was used in the cis-trans assay. Cells were transfected with two plasmids. […] The cis-vector contains an easily assayable gene product, in this case the firefly luciferase, coupled to a retinoid-responsive promoter, i.e., an RARE or RXRE. Addition of retinoic acid or an appropriate synthetic retinoid results in the formation of a retinoid-RAR or -RXR complex that activates the expression of luciferase gene, causing light to be emitted from cell extracts. The level of luciferase activity is directly proportional to the effectiveness of the retinoid-receptor complex in activating gene expression. This sensitive and reproducible co-transfection approach permits the identification of retinoids that interact with the different receptor isoforms.
(§6) Cells were cultured in DMEM supplemented with 10% charcoal resin-stripped fetal bovine serum, and experiments were conducted in 96-well plates. […] Cells were transfected for 6 h and then washed to remove the precipitate. The cells were then incubated for 36 h with or without retinoid. After the transfection, all subsequent steps were performed on a Beckman Biomek Automated Workstation. […] All determinations were performed in triplicate in two independent experiments and were normalized for transfection efficiency by using β-galactosidase as the internal control. […] Efficacy values less than 5% are not statistically different than the 0% background.

RXRγ = biological target: T2, RXRγ (Mus musculus, UniProt P28705); assay: Co-transfection (cis-trans) assay in CV-1 cells, RXRγ; conditions: for Emax at 10 µM: CV-1, maximal response relative to all-trans-retinoic acid at 10^−5 M, read-out: Efficacy
T2 construct: expressed in transfected cells; host or cells: CV-1 (monkey kidney)
T2 sequence (P28705 1-463): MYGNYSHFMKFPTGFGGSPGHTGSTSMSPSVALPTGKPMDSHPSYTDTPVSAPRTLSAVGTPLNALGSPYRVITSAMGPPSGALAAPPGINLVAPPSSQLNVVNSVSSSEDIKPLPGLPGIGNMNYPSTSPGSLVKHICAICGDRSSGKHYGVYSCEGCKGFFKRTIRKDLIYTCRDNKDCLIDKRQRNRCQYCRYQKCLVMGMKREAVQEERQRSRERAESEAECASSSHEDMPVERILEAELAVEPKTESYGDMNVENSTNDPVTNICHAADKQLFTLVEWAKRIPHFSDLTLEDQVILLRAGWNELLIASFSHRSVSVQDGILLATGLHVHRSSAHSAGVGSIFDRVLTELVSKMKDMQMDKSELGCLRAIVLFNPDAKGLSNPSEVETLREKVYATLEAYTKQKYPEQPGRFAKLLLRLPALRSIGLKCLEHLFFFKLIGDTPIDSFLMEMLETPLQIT
From the text: as §1, §2, §3, §4, §5, §6

RARα = biological target: T3, RARα (Homo sapiens, UniProt P10276); assay: Co-transfection (cis-trans) assay in CV-1 cells, RARα; design: expressed in transfected cells; host or cells: CV-1 (monkey kidney); conditions: for Emax at 10 µM: CV-1, maximal response relative to all-trans-retinoic acid at 10^−5 M, read-out: Efficacy; for EC50: CV-1 cells, luciferase reporter, 36 h, read-out: Potency
T3 sequence (P10276 1-462): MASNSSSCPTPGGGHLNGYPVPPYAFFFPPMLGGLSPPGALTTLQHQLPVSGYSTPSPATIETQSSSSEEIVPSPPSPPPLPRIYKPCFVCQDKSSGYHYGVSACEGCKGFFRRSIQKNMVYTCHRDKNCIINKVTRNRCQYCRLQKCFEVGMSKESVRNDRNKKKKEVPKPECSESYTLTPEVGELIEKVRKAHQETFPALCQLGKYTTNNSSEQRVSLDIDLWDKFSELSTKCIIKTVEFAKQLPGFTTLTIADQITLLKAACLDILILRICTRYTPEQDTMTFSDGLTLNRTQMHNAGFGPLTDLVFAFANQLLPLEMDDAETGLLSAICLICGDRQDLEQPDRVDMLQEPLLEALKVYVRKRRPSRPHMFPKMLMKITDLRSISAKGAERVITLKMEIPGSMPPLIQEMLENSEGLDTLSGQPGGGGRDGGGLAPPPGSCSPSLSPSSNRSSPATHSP
From the text: as §1, §2, §3, §4, §5, §6

[1] = RXRα, CV-1 cells, luciferase reporter, 36 h, read-out: Potency
[2] = RXRγ, CV-1 cells, luciferase reporter, 36 h, read-out: Potency

## CC(/C=C/C1(c2cc3c(cc2C)C(C)(C)CCC3(C)C)CC1)=C\C(=O)O [Compound 104, (2E,4E)-3-methyl-5-[1-(3,5,5,8,8-pentamethyl-5,6,7,8-tetrahydro-2-naphthyl)cyclopropyl]penta-2,4-dienoic acid]
RXRα; RXRα
  Emax at 10 µM: 75%
RXRα; [1]
  EC50: 5 nM
RXRγ; RXRγ
  Emax at 10 µM: 85%
RXRγ; [2]
  EC50: 7 nM
RARα
  Emax at 10 µM: 7%
  EC50: > 10000 nM

## C=C(c1ccc(C(=O)O)cc1)c1cc2c(cc1Br)C(C)(C)CCC2(C)C [3-Bromo-TTNEB, 4-[1-(3-bromo-5,5,8,8-tetramethyl-5,6,7,8-tetrahydro-2-naphthyl)ethenyl]benzoic acid]
RXRα
  EC50: 64 nM
RXRα; CV-1, read-out: Efficacy
  Emax: 88%
RXRγ
  EC50: 52 nM
RARα
  Emax at 10 µM: 3%

## CC1=C(/C=C/C(=C\C=C\C(C)=C\C(=O)O)C(C)C)C(C)(C)CCC1 [Compound 75, 3-methyl-7-isopropyl-9-(2,6,6-trimethyl-1-cyclohexen-1-yl)-2E,4E,6Z,8E-nonatetranoic acid]
RXRα; RXRα
  Emax at 10 µM: 100%
RXRα; [1]
  EC50: 21 nM
RXRγ; RXRγ
  Emax at 10 µM: 106%
RXRγ; [2]
  EC50: 11 nM
RARα
  Emax at 10 µM: < 2%
  EC50: > 10000 nM

## C/C(=C/C=C/C(C)=C/C(=O)O)c1cc2c(cc1C)C(C)(C)CCC2(C)C [Compound 128, (2E,4E,6Z)-7-(3,5,5,8,8-pentamethyl-5,6,7,8-tetrahydro-2-naphthyl)-3-methyl-octa-2,4,6-trienoic acid]
RXRα; RXRα
  Emax at 10 µM: 108%
RXRα; [1]
  EC50: 11 nM
RXRγ; RXRγ
  Emax at 10 µM: 115%
RXRγ; [2]
  EC50: 10 nM
RARα
  Emax at 10 µM: 12%
  EC50: > 10000 nM

## CC1=C(/C=C/C2(C/C=C/C(C)=C/C(=O)O)CC2)C(C)(C)CCC1 [Compound 110]
RXRα; RXRα
  Emax at 10 µM: 79%
RXRα; [1]
  EC50: 85 nM
RXRγ; RXRγ
  Emax at 10 µM: 87%
RXRγ; [2]
  EC50: 198 nM
RARα
  Emax at 10 µM: 9%
  EC50: > 10000 nM

## CC(/C=C/C=C(\c1ccc2c(c1)C(C)(C)CCC2(C)C)C(C)C)=C\C(=O)O [Compound 123, (2E,4E,6Z)-7-(5,5,8,8-tetramethyl-5,6,7,8-tetrahydro-2-naphthyl)-3,8-dimethyl-nona-2,4,6-trienoic acid]
RXRα; RXRα
  Emax at 10 µM: 90%
RXRα; [1]
  EC50: 24 nM
RXRγ; RXRγ
  Emax at 10 µM: 97%
RXRγ; [2]
  EC50: 24 nM
RARα
  Emax at 10 µM: 11%
  EC50: > 10000 nM

## CC1=C(/C=C/C(=C\C=C\C(C)=C\C(=O)O)C(C)(C)C)C(C)(C)CCC1 [Compound 77, 3-methyl-7-t-butyl-9-(2,6,6-trimethyl-1-cyclohexen-1-yl)-2E,4E,6Z,8E-nonatetranoic acid]
RXRα; RXRα
  Emax at 10 µM: 75%
RXRα; [1]
  EC50: 16 nM
RXRγ; RXRγ
  Emax at 10 µM: 71%
RXRγ; [2]
  EC50: 9 nM
RARα
  Emax at 10 µM: < 2%
  EC50: > 10000 nM

## CCCC(=C/C=C/C(C)=C/C(=O)O)/C=C/C1=C(C)CCCC1(C)C [Compound 74, 3-methyl-7-propyl-9-(2,6,6-trimethyl-1-cyclohexen-1-yl)-2E,4E,6Z,8E-nonatetranoic acid]
RXRα; RXRα
  Emax at 10 µM: 78%
RXRα; [1]
  EC50: 11 nM
RXRγ; RXRγ
  Emax at 10 µM: 85%
RXRγ; [2]
  EC50: 12 nM
RARα
  Emax at 10 µM: < 2%
  EC50: > 10000 nM

## C=C(c1ccc(C(=O)Nc2ccc(O)cc2)cc1)c1cc2c(cc1C)C(C)(C)CCC2(C)C [3-Methyl-TTNEHBP (63), 4-[1-(3,5,5,8,8-pentamethyl-5,6,7,8-tetrahydro-2-naphthyl)ethenyl]-N-(4-hydroxyphenyl)benzamide]
RXRα; RXRα
  Emax at 10 µM: 125%
RXRα; [1]
  EC50: 140 nM
RXRγ; RXRγ
  Emax at 10 µM: 163%
RXRγ; [2]
  EC50: 48 nM
RARα
  Emax at 10 µM: < 2%
  EC50: > 10000 nM

## CC1=C(C=CC2CCCCC2/C=C/C(C)=C/C(=O)O)C(C)(C)CCC1 (stereo not shown) [Compound 100, 3-methyl-5-(2-[2-(2,6,6-trimethylcyclohexen-1-yl)ethenyl]cyclohexyl)-2E,4E-pentadienoic acid]
RXRα; RXRα
  Emax at 10 µM: 63%
RXRα; [1]
  EC50: 123 nM
RXRγ; RXRγ
  Emax at 10 µM: 72%
RXRγ; [2]
  EC50: 106 nM
RARα
  Emax at 10 µM: 9%
  EC50: > 10000 nM

## Cc1cc2c(cc1C(=O)c1ccc(C(=O)Nc3ccc(O)cc3)cc1)C(C)(C)CCC2(C)C [3-Methyl-TTNCHBP, 4-[(3,5,5,8,8-pentamethyl-5,6,7,8-tetrahydro-2-naphthyl)carbonyl]-N-(4-hydroxyphenyl)benzamide]
RXRα; RXRα
  Emax at 10 µM: 113%
RXRα; [1]
  EC50: 1100 nM
RXRγ; RXRγ
  Emax at 10 µM: 128%
RXRγ; [2]
  EC50: 300 nM
RARα
  Emax at 10 µM: < 2%
  EC50: > 10000 nM
